# Laboratory results as given in ChEMBL document CHEMBL4765487, “From a Designer Drug to the Discovery of Selective Cannabinoid Type 2 Receptor Agonists with Favorable Pharmacokinetic Profiles for the Treatment of Systemic Sclerosis” (J Med Chem, 2021).
# The source made the active and inactive calls. No cut-off for these calls is given here.
# Tests used:
# [1] = target: Prostaglandin E2 receptor EP4 subtype (Homo sapiens) (UniProt P35408); experiment: Antagonist activity at EP2 (unknown origin) at 10 uM
# [2] = Clearance in BALB/c mouse at 1 mg/kg, iv measured during 0.083 to 24 hrs post dose by LC-MS/MS analysis; type: ADME, organism-based; conditions: in vivo, time 0.083-24 hrs
# in vitro [3] = conditions: human, liver microsomes
# Description: Half life in human liver microsomes at 1 uM in presence of NADPH by LC-MS/MS analysis
# in vitro [4] = conditions: human, liver
# Cannabinoid receptor 2 [5] = target: T1, Cannabinoid receptor 2 (Homo sapiens, UniProt P34972); experiment: Agonist activity at human CB2 receptor expressed in CHO cells assessed as increase in ERK1/2 Thr202/Tyr204 phosphorylation at 0.1 to 10 uM incubated for 15 mins by Western blot analysis; type: cell-based; conditions: filed as agonist, dose 0.1-10 µM
# [6] = target: Prostaglandin E2 receptor EP4 subtype (Homo sapiens) (UniProt P35408); experiment: Agonist activity at EP2 (unknown origin) at 10 uM
# Cannabinoid receptor 2 [7] = target: T1, Cannabinoid receptor 2; experiment: Agonist activity at human CB2 receptor expressing CHO cells co-expressing Galpha16 by calcium mobilization assay; type: functional, cell-based
# Cannabinoid receptor 1 [8] = target: T2, Cannabinoid receptor 1 (Homo sapiens, UniProt P21554); experiment: Agonist activity at human CB1 receptor expressed in HEK293 cells after 24 hrs by luciferase reporter gene assay based Tango beta-arrestin recruitment method; type: cell-based
# Cannabinoid receptor 1 [9] = target: T2, Cannabinoid receptor 1; experiment: Induction of receptor desensitization at human CB1 receptor expressing CHO cells co-expressing Galpha16 at 10 uM followed by washing with HBSS buffer upon incubation for 10 mins and restimulated with CP55940 by calcium mobilization assay; type: functional, cell-based; conditions: filed as agonist
# [10] = Half life in BALB/c mouse at 1 mg/kg, iv measured during 0.083 to 24 hrs post dose by LC-MS/MS analysis; type: ADME, organism-based; conditions: in vivo, time 0.083-24 hrs
# Mus musculus [11] = experiment: Antifibrotic activity in BALB/c mouse model of BLM-induced systemic sclerosis assessed as reduction in TGF-beta mRNA expression at 1 to 5 mg/kg, sc dosed once daily for 4 weeks by quantitative real-time PCR analysis; type: functional, organism-based; conditions: dose 1-5 mg/kg
# [12] = Toxicity in BALB/c mouse model of BLM-induced systemic sclerosis assessed as effect on body weight at 1 to 5 mg/kg, sc dosed once daily for 4 weeks; type: organism-based; conditions: in vivo, 672 h, dose 1-5 mg/kg
# [13] = Oral bioavailability in BALB/c mouse at 5 mg/kg measured during 0.083 to 24 hrs post dose by LC-MS/MS analysis; type: ADME, organism-based; conditions: in vivo, time 0.083-24 hrs
# Mus musculus [14] = experiment: Antifibrotic activity in BALB/c mouse model of BLM-induced systemic sclerosis assessed as reduction in alpha-SMA mRNA expression at 1 to 5 mg/kg, sc dosed once daily for 4 weeks by quantitative real-time PCR analysis; type: functional, organism-based; conditions: dose 1-5 mg/kg
# [15] = AUC (0 to infinity) in BALB/c mouse at 5 mg/kg, po measured during 0.083 to 24 hrs post dose by LC-MS/MS analysis; type: ADME, organism-based; parameters: route oral, dose 5 mg/kg, time 0.083-24 hrs; conditions: in vivo
# Cannabinoid receptor 2 [16] = target: T1, Cannabinoid receptor 2; experiment: Agonist activity at human CB2 receptor expressing CHO cells co-expressing Galpha16 in presence of CB2 antagonist AM630 by calcium mobilization assay; type: functional, cell-based
# Mus musculus [17] = experiment: Antifibrotic activity in BALB/c mouse model of BLM-induced systemic sclerosis assessed as reduction in dermal pathological symptoms at 1 to 5 mg/kg, sc dosed once daily for 4 weeks by H and E staining based analysis; type: functional, organism-based; conditions: dose 1-5 mg/kg
# Cannabinoid receptor 2 [18] = target: T1, Cannabinoid receptor 2; experiment: Agonist activity at human CB2 receptor expressed in CHO cells assessed as increase in ERK1/2 Thr202/Tyr204 phosphorylation at 10 uM incubated for 15 mins in presence of CB2 antagonist AM630 by Western blot analysis; type: cell-based
# [19] = target: T3, Glucose-dependent insulinotropic receptor (Homo sapiens) (UniProt Q8TDV5); experiment: Agonist activity at GPR119 (unknown origin) at 10 uM
# T3 sequence (whole entry): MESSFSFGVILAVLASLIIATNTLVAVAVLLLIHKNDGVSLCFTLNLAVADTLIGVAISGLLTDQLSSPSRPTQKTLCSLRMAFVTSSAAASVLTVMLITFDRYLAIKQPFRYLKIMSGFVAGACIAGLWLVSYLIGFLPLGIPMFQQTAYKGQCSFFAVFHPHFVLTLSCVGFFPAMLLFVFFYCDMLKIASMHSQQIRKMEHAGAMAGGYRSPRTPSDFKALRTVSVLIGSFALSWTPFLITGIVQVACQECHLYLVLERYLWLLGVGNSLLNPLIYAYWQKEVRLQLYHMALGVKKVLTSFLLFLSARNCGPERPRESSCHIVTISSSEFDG
# in vitro [20] = conditions: human, liver microsomes; remark: listed apart in the source
# Description: Stability in human liver microsomes assessed as parent compound remaining at 1 uM incubated for 60 mins in presence of NADPH by LC-MS/MS analysis
# Cannabinoid receptor 2 [21] = target: T1, Cannabinoid receptor 2; experiment: Agonist activity at human CB2 receptor expressed in HEK293 cells assessed as inhibition of forskolin-induced cAMP production incubated for 15 mins by cAMP HTRF assay; type: functional, cell-based
# [22] = Cmax in BALB/c mouse at 5 mg/kg, po measured during 0.083 to 24 hrs post dose by LC-MS/MS analysis; type: ADME, organism-based; parameters: route oral, time 0.083-24 hrs, dose 5 mg/kg; conditions: in vivo
# Cannabinoid receptor 1 [23] = target: T2, Cannabinoid receptor 1; experiment: Agonist activity at human CB1 receptor expressing CHO cells co-expressing Galpha16 at 10 uM by calcium mobilization assay; type: functional, cell-based; conditions: filed as agonist
# Mus musculus [24] = experiment: Antifibrotic activity in BALB/c mouse model of BLM-induced systemic sclerosis assessed as reduction in skin thickness at 5 mg/kg, sc dosed once daily for 4 weeks by H and E staining based analysis; type: functional, organism-based
# [25] = Volume of distribution in BALB/c mouse at 5 mg/kg, po measured during 0.083 to 24 hrs post dose by LC-MS/MS analysis; type: ADME, organism-based; conditions: in vivo, time 0.083-24 hrs
# [26] = target: T4, Probable G-protein coupled receptor 132 (Homo sapiens) (UniProt Q9UNW8); experiment: Agonist activity at GPR132 (unknown origin) at 10 uM
# T4 sequence (whole entry): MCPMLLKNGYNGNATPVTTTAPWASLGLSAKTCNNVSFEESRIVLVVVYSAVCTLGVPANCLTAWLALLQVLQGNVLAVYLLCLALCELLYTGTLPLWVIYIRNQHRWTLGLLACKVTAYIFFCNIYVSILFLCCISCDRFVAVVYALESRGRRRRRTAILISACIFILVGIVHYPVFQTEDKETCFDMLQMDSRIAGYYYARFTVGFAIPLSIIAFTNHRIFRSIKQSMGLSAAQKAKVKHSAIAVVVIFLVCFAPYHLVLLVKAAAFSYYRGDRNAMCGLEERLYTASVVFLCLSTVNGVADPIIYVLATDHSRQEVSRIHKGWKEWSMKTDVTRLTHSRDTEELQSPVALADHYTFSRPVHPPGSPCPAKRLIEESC
# [27] = target: Prostaglandin E2 receptor EP4 subtype (Homo sapiens) (UniProt P35408); experiment: Antagonist activity at EP4 (unknown origin) at 10 uM
# Homo sapiens = organism: Homo sapiens; experiment: Selectivity index, ratio of EC50 for agonist activity at human CB1 receptor expressing CHO cells co-expressing Galpha16 by calcium mobilization assay to EC50 for agonist activity at human CB2 receptor expressing CHO cells co-expressing Galpha16 by calcium mobilization assay
# [28] = Volume of distribution in BALB/c mouse at 1 mg/kg, iv measured during 0.083 to 24 hrs post dose by LC-MS/MS analysis; type: ADME, organism-based; conditions: in vivo, time 0.083-24 hrs
# [29] = target: T3, Glucose-dependent insulinotropic receptor (Homo sapiens); experiment: Antagonist activity at GPR119 (unknown origin) at 10 uM
# Sequence of Prostaglandin E2 receptor EP4 subtype (Homo sapiens) (P35408 whole entry): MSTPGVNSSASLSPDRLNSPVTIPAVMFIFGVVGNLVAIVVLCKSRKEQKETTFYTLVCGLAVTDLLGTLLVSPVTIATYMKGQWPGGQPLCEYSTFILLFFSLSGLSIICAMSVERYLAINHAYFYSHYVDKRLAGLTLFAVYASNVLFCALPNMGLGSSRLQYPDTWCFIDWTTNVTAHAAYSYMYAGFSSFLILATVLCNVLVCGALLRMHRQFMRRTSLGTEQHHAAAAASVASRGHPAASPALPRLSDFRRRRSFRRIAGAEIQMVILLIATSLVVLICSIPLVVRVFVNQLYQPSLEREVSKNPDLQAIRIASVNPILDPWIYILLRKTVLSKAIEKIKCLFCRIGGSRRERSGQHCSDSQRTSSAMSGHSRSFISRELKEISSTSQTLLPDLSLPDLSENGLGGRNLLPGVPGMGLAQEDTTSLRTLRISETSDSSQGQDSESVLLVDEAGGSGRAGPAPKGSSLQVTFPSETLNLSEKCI
# T1 sequence (P34972 whole entry): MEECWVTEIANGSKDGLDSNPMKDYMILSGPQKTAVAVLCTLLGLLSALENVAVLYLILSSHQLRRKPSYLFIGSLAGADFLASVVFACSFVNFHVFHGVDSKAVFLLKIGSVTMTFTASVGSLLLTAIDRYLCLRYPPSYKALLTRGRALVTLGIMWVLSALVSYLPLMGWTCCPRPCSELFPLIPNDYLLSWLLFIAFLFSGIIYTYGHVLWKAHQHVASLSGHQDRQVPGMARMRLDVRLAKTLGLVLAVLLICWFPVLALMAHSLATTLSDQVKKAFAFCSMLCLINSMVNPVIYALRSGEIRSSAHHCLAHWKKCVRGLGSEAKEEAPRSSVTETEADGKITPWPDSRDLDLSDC
# T2 sequence (P21554 whole entry): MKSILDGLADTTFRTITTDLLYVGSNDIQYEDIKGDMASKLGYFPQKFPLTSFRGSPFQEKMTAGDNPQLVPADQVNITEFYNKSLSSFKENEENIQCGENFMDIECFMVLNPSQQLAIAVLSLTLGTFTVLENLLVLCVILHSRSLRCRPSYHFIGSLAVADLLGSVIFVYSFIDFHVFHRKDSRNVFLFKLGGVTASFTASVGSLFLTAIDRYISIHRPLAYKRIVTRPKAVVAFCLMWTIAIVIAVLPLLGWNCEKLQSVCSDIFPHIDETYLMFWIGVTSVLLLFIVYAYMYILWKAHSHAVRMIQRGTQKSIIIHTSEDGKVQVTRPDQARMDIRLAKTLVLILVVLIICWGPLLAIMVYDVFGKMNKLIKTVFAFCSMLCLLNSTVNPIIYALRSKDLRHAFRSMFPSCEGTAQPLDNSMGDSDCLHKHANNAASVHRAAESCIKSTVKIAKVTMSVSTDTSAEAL
structure (smiles),measurement,setting,value
CC(C)(CO)NC(=O)c1cc(C(C)(C)C)n(-c2ccc(C(F)(F)F)cn2)n1,Activity,[1],inactive
same,clearance,[2],40 mL/min/kg
same,half-life at 1 µM,in vitro [3],1.88 h
same,CLint scaled at 1 µM,in vitro [4],11.1 mL/min/kg
same,Activity,Cannabinoid receptor 2 [5],Active
same,Activity,[6],inactive
same,EC50,Cannabinoid receptor 2 [7],15.2 nM
same,EC50,Cannabinoid receptor 1 [8],> 10000 nM
same,Activity,Cannabinoid receptor 1 [9],Active
same,half-life,[10],1.32 h
same,Activity,Mus musculus [11],Active
same,Activity,[12],Non-Toxic
same,bioavailability,[13],79.5%
same,Activity,Mus musculus [14],Active
same,AUC(0-inf),[15],1670 ng·h/mL
same,Activity,Cannabinoid receptor 2 [16],inactive
same,Activity,Mus musculus [17],Active
same,Activity,Cannabinoid receptor 2 [18],inactive
same,Activity,[19],inactive
same,"remaining at 1 h, 1 µM",in vitro [20],64%
same,EC50,Cannabinoid receptor 2 [21],10.7 nM
same,Cmax,[22],603 ng/mL
same,Activity,Cannabinoid receptor 1 [23],Active
same,Activity,Mus musculus [24],Active
same,Vd,[25],9.2 L/kg
same,Activity,[26],inactive
same,Activity,[27],inactive
same,Ratio EC50,Homo sapiens,> 100
same,Vd,[28],4.5 L/kg
same,Activity,[29],inactive
